pIC50: −log10 of the molar value.
Biological target: recombinant human NSD2 (amino acids 2-end) with N-terminal His tag (Homo sapiens (Human), UniProt O96028)
Assay: NSD2 inhibitory activity, modified RBC HotSpot HMT Assay
Format: biochemical
Details: NSD2 2 nM, chicken oligonucleosomes 0.05 mg/mL, 3H-SAM 1 μM, 1 hour at 30° C.
Experimental: Exemplary compounds were tested for NSD2 inhibitory activity using a modified RBC HotSpot HMT Assay.
A reaction mixture was prepared by adding oligonucleosomes from chicken (0.05 mg/mL) to freshly prepared reaction buffer containing 50 mM Tris-HCl (pH 8.5), 50 mM NaCl, 5 mM MgCl2, 0.01% Brij35, 1 mM DTT, and 1% DMSO followed by the addition of recombinant human NSD2 (amino acids 2-end) with N-terminal His tag (2 nM; GenBank Accession No. NM_001042424; MW=155.5 kDa; expressed in Sf9 insect cells) and gentle mixing. The test compounds were diluted in DMSO (to 10 mM), and added to the reaction mixture in nanoliter amounts by using Acoustic Technology (Echo 550, LabCyte Inc. Sunnyvale, CA) and incubated for 20 minutes at room temperature. […] The reaction mixture was delivered to filter paper, and the methylated substrate was quantified by scintillation counting.
Data analysis was performed using Excel and GraphPad Prism software for IC50 curve fits. For additional information on the histone methyltransferase assay, see, for example, Horiuchi K Y, et al., “Assay Development for Histone Methyltransferases,” Assay Drug Dev Technol.

Chain of recombinant human NSD2 (amino acids 2-end) with N-terminal His tag (O96028 2-1365 limits assumed): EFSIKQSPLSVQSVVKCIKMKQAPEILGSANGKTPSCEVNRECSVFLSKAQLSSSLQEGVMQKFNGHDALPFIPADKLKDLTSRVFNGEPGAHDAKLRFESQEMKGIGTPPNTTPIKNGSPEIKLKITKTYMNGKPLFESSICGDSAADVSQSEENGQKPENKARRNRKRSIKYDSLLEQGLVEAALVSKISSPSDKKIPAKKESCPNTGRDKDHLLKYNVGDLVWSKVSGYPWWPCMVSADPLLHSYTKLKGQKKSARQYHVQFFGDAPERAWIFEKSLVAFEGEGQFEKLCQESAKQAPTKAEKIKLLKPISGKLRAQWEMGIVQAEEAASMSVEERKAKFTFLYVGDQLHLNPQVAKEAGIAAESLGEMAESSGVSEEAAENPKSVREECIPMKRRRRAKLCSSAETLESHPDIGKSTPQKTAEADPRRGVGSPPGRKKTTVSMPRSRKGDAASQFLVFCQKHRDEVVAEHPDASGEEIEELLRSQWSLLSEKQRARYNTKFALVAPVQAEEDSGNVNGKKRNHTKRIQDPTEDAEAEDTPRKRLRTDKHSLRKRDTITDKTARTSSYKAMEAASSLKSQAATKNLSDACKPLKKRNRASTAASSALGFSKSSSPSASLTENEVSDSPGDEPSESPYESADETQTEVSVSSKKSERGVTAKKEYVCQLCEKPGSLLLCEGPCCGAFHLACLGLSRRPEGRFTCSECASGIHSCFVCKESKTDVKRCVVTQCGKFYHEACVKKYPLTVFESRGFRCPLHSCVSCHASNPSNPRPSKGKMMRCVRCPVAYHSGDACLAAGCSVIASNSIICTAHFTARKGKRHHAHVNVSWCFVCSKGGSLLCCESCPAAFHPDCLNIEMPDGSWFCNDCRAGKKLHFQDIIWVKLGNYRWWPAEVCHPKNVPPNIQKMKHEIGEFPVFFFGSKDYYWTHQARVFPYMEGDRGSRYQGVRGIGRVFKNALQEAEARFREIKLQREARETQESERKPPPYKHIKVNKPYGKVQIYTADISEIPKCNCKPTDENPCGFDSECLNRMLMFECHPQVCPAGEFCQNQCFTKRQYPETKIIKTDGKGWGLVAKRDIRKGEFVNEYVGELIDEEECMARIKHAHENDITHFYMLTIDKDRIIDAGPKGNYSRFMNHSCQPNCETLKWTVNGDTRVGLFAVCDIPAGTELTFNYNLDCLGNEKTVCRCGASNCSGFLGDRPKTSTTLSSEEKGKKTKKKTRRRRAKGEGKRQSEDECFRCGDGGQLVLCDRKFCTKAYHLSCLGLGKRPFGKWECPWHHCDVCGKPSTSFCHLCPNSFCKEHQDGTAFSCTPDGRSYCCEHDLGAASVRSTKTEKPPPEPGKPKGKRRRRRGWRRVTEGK

First: Nc1ncnc2c1ncn2Cc1cc(-c2cc(F)c(OCCCCNc3cccc4c3C(=O)N(C3CCC(=O)NC3=O)C4=O)cc2F)ncc1N1CCC[C@](N)([C@H](O)C(F)F)C1 (stereo partly drawn) [I-61, 4-((4-(4-(5-((R)-3-amino-3-((S)-2,2-difluoro-1-hydroxyethyl)piperidin-1-yl)-4-((6-amino-9H-purin-9-yl)methyl)pyridin-2-yl)-2,5-difluorophenoxy)butyl)amino)-2-(2,6-dioxopiperidin-3-yl)isoindoline-1,3-dione]
Second: Nc1ncnc2c1ncn2Cc1cc(-c2cc(F)c(OCCCCCNc3cccc4c3C(=O)N(C3CCC(=O)NC3=O)C4=O)cc2F)ncc1N1CCC[C@](N)([C@H](O)C(F)F)C1 (stereo partly drawn) [I-62, 4-((5-(4-(5-((R)-3-amino-3-((S)-2,2-difluoro-1-hydroxyethyl)piperidin-1-yl)-4-((6-amino-9H-purin-9-yl)methyl)pyridin-2-yl)-2,5-difluorophenoxy)pentyl)amino)-2-(2,6-dioxopiperidin-3-yl)isoindoline-1,3-dione]
The pIC50 of the first is higher: greater than 7.30 for the first, 7.00 to 7.30 for the second.

First: COc1c(F)cc(-c2cc(Cn3cnc4c(NCCCCCNc5cccc6c5C(=O)N(C5CCC(=O)NC5=O)C6=O)ncnc43)c(N3CCC[C@](N)(c4ccccn4)C3)cn2)cc1F (stereo partly drawn) [I-79, 4-((5-((9-((5-((R)-3-amino-3-(pyridin-2-yl)piperidin-1-yl)-2-(3,5-difluoro-4-methoxyphenyl)pyridin-4-yl)methyl)-9H-purin-6-yl)amino)pentyl)amino)-2-(2,6-dioxopiperidin-3-yl)isoindoline-1,3-dione]
Second: COc1c(F)cc(-c2cc(Cn3cnc4c(NCCCCCCNc5cccc6c5C(=O)N(C5CCC(=O)NC5=O)C6=O)ncnc43)c(N3CCC[C@](N)(c4ccccn4)C3)cn2)cc1F (stereo partly drawn) [I-80, 4-((6-((9-((5-((R)-3-amino-3-(pyridin-2-yl)piperidin-1-yl)-2-(3,5-difluoro-4-methoxyphenyl)pyridin-4-yl)methyl)-9H-purin-6-yl)amino)hexyl)amino)-2-(2,6-dioxopiperidin-3-yl)isoindoline-1,3-dione]
The pIC50 of the first is higher: 6.00 to 7.00 for the first, less than 6.00 for the second.

`Nc1ncnc2c1ncn2Cc1cc(-c2cc(F)c(OCC(=O)NCCCNc3cccc4c3C(=O)N(C3CCC(=O)NC3=O)C4=O)cc2F)ncc1N1CCC[C@](N)([C@H](O)C(F)F)C1` (stereo partly drawn) [I-66, 2-(4-(5-((R)-3-amino-3-((S)-2,2-difluoro-1-hydroxyethyl)piperidin-1-yl)-4-((6-amino-9H-purin-9-yl)methyl)pyridin-2-yl)-2,5-difluorophenoxy)-N-(3-((2-(2,6-dioxopiperidin-3-yl)-1,3-dioxoisoindolin-4-yl)amino)propyl)acetamide] and `Nc1ncnc2c1ncn2Cc1cc(-c2cc(F)c(OCC(=O)NCCNc3cccc4c3C(=O)N(C3CCC(=O)NC3=O)C4=O)cc2F)ncc1N1CCC[C@](N)([C@H](O)C(F)F)C1` (stereo partly drawn) [I-65, 2-(4-(5-((R)-3-amino-3-((S)-2,2-difluoro-1-hydroxyethyl)piperidin-1-yl)-4-((6-amino-9H-purin-9-yl)methyl)pyridin-2-yl)-2,5-difluorophenoxy)-N-(2-((2-(2,6-dioxopiperidin-3-yl)-1,3-dioxoisoindolin-4-yl)amino)ethyl)acetamide] cannot be ordered by pIC50: greater than 7.30 for the first, greater than 7.30 for the second.

Compared with `Nc1ncnc2c1ncn2Cc1cc(-c2cc(F)c(OCCCCCCNc3cccc4c3C(=O)N(C3CCC(=O)NC3=O)C4=O)cc2F)ncc1N1CCC[C@](N)([C@H](O)C(F)F)C1` (stereo partly drawn) [I-63, 4-((6-(4-(5-((R)-3-amino-3-((S)-2,2-difluoro-1-hydroxyethyl)piperidin-1-yl)-4-((6-amino-9H-purin-9-yl)methyl)pyridin-2-yl)-2,5-difluorophenoxy)hexyl)amino)-2-(2,6-dioxopiperidin-3-yl)isoindoline-1,3-dione], `COc1cc(F)c(-c2cc(Cn3cnc4c(NCCCCCCNc5cccc6c5C(=O)N(C5CCC(=O)NC5=O)C6=O)ncnc43)c(N3CCC[C@](N)([C@H](O)C(F)F)C3)cn2)cc1F` (stereo partly drawn) [I-77, 4-((6-((9-((5-((R)-3-amino-3-((S)-2,2-difluoro-1-hydroxyethyl)piperidin-1-yl)-2-(2,5-difluoro-4-methoxyphenyl)pyridin-4-yl)methyl)-9H-purin-6-yl)amino)hexyl)amino)-2-(2,6-dioxopiperidin-3-yl)isoindoline-1,3-dione] is lower in pIC50: 6.00 to 7.00 for the first, less than 6.00 for the second. The first is the more potent here.

Compared with `Nc1ncnc2c1ncn2Cc1cc(-c2cc(F)c(OCC(=O)Nc3cccc4c3C(=O)N(C3CCC(=O)NC3=O)C4=O)cc2F)ncc1N1CCC[C@](N)([C@H](O)C(F)F)C1` (stereo partly shown) [I-64], `COc1cc(F)c(-c2cc(Cn3cnc4c(NCCCCCNc5cccc6c5C(=O)N(C5CCC(=O)NC5=O)C6=O)ncnc43)c(N3CCC[C@](N)([C@H](O)C(F)F)C3)cn2)cc1F` (stereo partly drawn) [I-76, 4-((5-((9-((5-((R)-3-amino-3-((S)-2,2-difluoro-1-hydroxyethyl)piperidin-1-yl)-2-(2,5-difluoro-4-methoxyphenyl)pyridin-4-yl)methyl)-9H-purin-6-yl)amino)pentyl)amino)-2-(2,6-dioxopiperidin-3-yl)isoindoline-1,3-dione] is lower in pIC50: greater than 7.30 for the first, less than 6.00 for the second.

Going from `Nc1ncnc2c1ncn2Cc1cc(-c2cc(F)c(OCCCCNc3cccc4c3C(=O)N(C3CCC(=O)NC3=O)C4=O)c(F)c2)ncc1N1CCC[C@@](N)(c2ccccn2)C1` (stereo partly drawn) [I-68, 4-((4-(4-(5-((S)-3-amino-3-(pyridin-2-yl)piperidin-1-yl)-4-((6-amino-9H-purin-9-yl)methyl)pyridin-2-yl)-2,6-difluorophenoxy)butyl)amino)-2-(2,6-dioxopiperidin-3-yl)isoindoline-1,3-dione] to `Nc1ncnc2c1ncn2Cc1cc(-c2cc(F)c(OCCCCNc3cccc4c3C(=O)N(C3CCC(=O)NC3=O)C4=O)c(F)c2)ncc1N1CCC[C@](N)(c2ccccn2)C1` (stereo partly drawn) [I-67, 4-((4-(4-(5-((R)-3-amino-3-(pyridin-2-yl)piperidin-1-yl)-4-((6-amino-9H-purin-9-yl)methyl)pyridin-2-yl)-2,6-difluorophenoxy)butyl)amino)-2-(2,6-dioxopiperidin-3-yl)isoindoline-1,3-dione], the pIC50 rises from less than 6.00 to greater than 7.30. The second is the more potent here.

`Cc1ncsc1-c1ccc(CNC(=O)[C@@H]2C[C@@H](O)CN2C(=O)[C@@H](NC(=O)CCCCCCCCCCCOc2cc(F)c(-c3cc(Cn4cnc5c(N)ncnc54)c(N4CCC[C@](N)([C@H](O)C(F)F)C4)cn3)cc2F)C(C)(C)C)cc1` [I-85] and `Cc1ncsc1-c1ccc(CNC(=O)[C@@H]2C[C@@H](O)CN2C(=O)[C@@H](NC(=O)CCOCCOCCOCCOc2cc(F)c(-c3cc(Cn4cnc5c(N)ncnc54)c(N4CCC[C@](N)([C@H](O)C(F)F)C4)cn3)cc2F)C(C)(C)C)cc1` [I-84] fall in the same range of pIC50: 6.00 to 7.00 for the first, 6.00 to 7.00 for the second.

First: COc1c(F)cc(-c2cc(Cn3cnc4c(NCCCCCCNc5cccc6c5C(=O)N(C5CCC(=O)NC5=O)C6=O)ncnc43)c(N3CCC[C@@](N)(c4ccccn4)C3)cn2)cc1F (stereo partly drawn) [I-81, 4-((6-((9-((5-((S)-3-amino-3-(pyridin-2-yl)piperidin-1-yl)-2-(3,5-difluoro-4-methoxyphenyl)pyridin-4-yl)methyl)-9H-purin-6-yl)amino)hexyl)amino)-2-(2,6-dioxopiperidin-3-yl)isoindoline-1,3-dione]
Second: COc1c(F)cc(-c2cc(Cn3cnc4c(NCCCCCCCNc5cccc6c5C(=O)N(C5CCC(=O)NC5=O)C6=O)ncnc43)c(N3CCC[C@](N)(c4ccccn4)C3)cn2)cc1F (stereo partly drawn) [I-82, 4-((7-((9-((5-((R)-3-amino-3-(pyridin-2-yl)piperidin-1-yl)-2-(3,5-difluoro-4-methoxyphenyl)pyridin-4-yl)methyl)-9H-purin-6-yl)amino)heptyl)amino)-2-(2,6-dioxopiperidin-3-yl)isoindoline-1,3-dione]
The pIC50 of the first is higher: 7.00 to 7.30 for the first, less than 6.00 for the second.

First: Nc1ncnc2c1ncn2Cc1cc(-c2cc(F)c(OCCCCCNc3cccc4c3C(=O)N(C3CCC(=O)NC3=O)C4=O)c(F)c2)ncc1N1CCC[C@](N)(c2ccccn2)C1 (stereo partly drawn) [I-69, 4-((5-(4-(5-((R)-3-amino-3-(pyridin-2-yl)piperidin-1-yl)-4-((6-amino-9H-purin-9-yl)methyl)pyridin-2-yl)-2,6-difluorophenoxy)pentyl)amino)-2-(2,6-dioxopiperidin-3-yl)isoindoline-1,3-dione]
Second: Nc1ncnc2c1ncn2Cc1cc(-c2cc(F)c(OCCCCCNc3cccc4c3C(=O)N(C3CCC(=O)NC3=O)C4=O)c(F)c2)ncc1N1CCC[C@@](N)(c2ccccn2)C1 (stereo partly shown) [I-70]
The pIC50 of the first is higher: greater than 7.30 for the first, less than 6.00 for the second.

Work on `Nc1ncnc2c1ncn2Cc1cc(-c2cc(F)c(OCCCCCCNc3cccc4c3C(=O)N(C3CCC(=O)NC3=O)C4=O)c(F)c2)ncc1N1CCC[C@](N)(c2ccccn2)C1` (stereo partly drawn) [I-71, 4-((6-(4-(5-((R)-3-amino-3-(pyridin-2-yl)piperidin-1-yl)-4-((6-amino-9H-purin-9-yl)methyl)pyridin-2-yl)-2,6-difluorophenoxy)hexyl)amino)-2-(2,6-dioxopiperidin-3-yl)isoindoline-1,3-dione] yielded a pIC50 greater than 7.30.
